Laboratory results: US5922719A, “Coumarin dopamine D4 receptor antagonists” (priority 1997, dated 1999)
Structures can show the parent of a compound that is named as a salt. Where two headings read alike, the source gives them in different places.

How the values were obtained:
[1] = target: human dopamine D2 (Long form) receptor (Homo sapiens, UniProt P14416); experiment: [3H]spiperone receptor binding assay, D2 (Long form) (CHO K1 membranes); conditions: [3H]spiperone 0.2 nM, human D2 (Long form), CHO K1 membranes, 60 minutes at 25° C.; read-out: D2 Ki
human dopamine D2 (Long form) receptor, sequence (P14416 whole entry): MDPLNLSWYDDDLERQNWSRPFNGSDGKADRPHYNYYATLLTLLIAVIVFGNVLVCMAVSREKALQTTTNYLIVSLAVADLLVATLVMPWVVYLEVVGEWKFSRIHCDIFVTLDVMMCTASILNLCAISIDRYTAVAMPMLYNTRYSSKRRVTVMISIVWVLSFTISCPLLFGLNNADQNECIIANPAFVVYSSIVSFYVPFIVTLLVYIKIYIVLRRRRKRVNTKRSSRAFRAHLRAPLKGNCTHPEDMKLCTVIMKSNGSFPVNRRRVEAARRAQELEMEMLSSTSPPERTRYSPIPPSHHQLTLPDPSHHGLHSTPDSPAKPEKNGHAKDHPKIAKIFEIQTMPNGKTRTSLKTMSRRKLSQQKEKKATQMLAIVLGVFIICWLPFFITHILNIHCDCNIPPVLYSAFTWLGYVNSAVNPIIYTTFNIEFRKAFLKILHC
Excerpt: (§1) A cell line expressing human dopamine D2 (Long form) receptors was purchased from Oregon Health Sciences University, Portland, Ore. The D2 receptor cDNA was subcloned into an expression vector, pRc/CMV. The plasmids were transfected by electroporation into CHO K1 cells. A single stable transfectant, resistant to the antibiotic G418, was isolated and selected for use in the binding studies. For D4 binding, CHO K1 cells stably transfected to express the human recombinant dopamine D4.2 receptor subtype, as described by Shih, et al., "The expression and functional characterization of human dopamine D4.2 receptor in CHO K1 cells," Soc. Neurosci., 1995;21(Part 1):621.
(§2) CHO K1 cells expressing either human D2 and D4.2 receptors were grown in 162 cm^2 culture flasks in F12 medium (Gibco Laboratories, Grand Island, N.Y.) supplemented with 10% fetal bovine serum (FBS, Hyclone, Logan, UT) in an atmosphere of 5% Co2 /95% air at 37° C. Cells were grown until confluent, after which growth medium was removed and replaced with 0.02% ethylene diamine tetracetate (EDTA) in a phosphate-buffered saline solution (Sigma Chemical Co; St. Louis, Mo.) and scraped from the flasks. The cells were centrifuged at about 1000×g for 10 minutes at […] and then resuspended in TEM buffer (25 mM Tris-HCL, pH 7.4, 5 mM EDTA, and 6 mM MgCl2) for D2 or the D4.2 buffer (50 mM Tris-HCl, pH 7.4, 5 mM EDTA, 1.5 mM CaCl2, 5 mM KCl, and 120 mM NaCl) and homogenized. The membranes were pelleted by centrifugation at 20,000×g at […] for 20 minutes. Then the pellets were resuspended in an appropriate buffer at 1 mL/flask and stored at -70° C. until used in the receptor binding assay.
After 60 minutes incubation at 25° C., the incubations were terminated by rapid filtration through Whatmann GF/B glass fibre filters (soaked for 1 hour in 0.5% polyethylenimine) on a -cell harvester, with three washes of 1 mL ice-cold buffer. Individual filter disks containing the bound ligand were placed in counting vials with 4 mL of scintillation fluid (Ready Gel, Beckman Instrument Inc, Fullerton, Calif.) and then counted in a Beckman LS-6800 liquid scintillation counter at an efficiency of 45%. Nonspecific binding was defined in presence of 1 mM of haloperidol.
(§3) Saturation and competition binding data were analyzed using an iterative nonlinear least-square curve-fitting Ligand program. […] Experimental compounds were made up as stock solutions in dimethyl sulfoxide (DMSO). […] Each observation was carried out in triplicate. To allow these calculations, Kd values were measured for the interaction of various ligands with the receptor. […]

[2] = target: T1, human recombinant dopamine D4.2 receptor (Homo sapiens, UniProt P21917, DEL265-296); experiment: [3H]spiperone receptor binding assay, D4.2 (CHO K1 membranes); conditions: [3H]spiperone 0.2 nM, human D4.2, CHO K1 membranes, 60 minutes at 25° C.
T1 construct: expressed in transfected cells
T1 sequence (P21917 with tags, fused parts or gaps DEL265-296): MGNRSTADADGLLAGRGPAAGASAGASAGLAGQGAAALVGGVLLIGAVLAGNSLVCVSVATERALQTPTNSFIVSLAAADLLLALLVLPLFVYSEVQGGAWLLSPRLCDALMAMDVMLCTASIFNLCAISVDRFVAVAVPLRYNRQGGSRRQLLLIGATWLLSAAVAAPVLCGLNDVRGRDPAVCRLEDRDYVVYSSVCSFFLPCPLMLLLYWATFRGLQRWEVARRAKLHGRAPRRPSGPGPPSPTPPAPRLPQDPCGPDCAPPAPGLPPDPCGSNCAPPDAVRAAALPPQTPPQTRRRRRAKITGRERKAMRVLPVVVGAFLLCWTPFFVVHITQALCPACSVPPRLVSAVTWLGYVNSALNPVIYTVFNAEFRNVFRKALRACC
Excerpt: as §1, with “Soc.” for “Soc. Neurosci., 1995;21(Part 1):621.”
as §2, with “Cells” for “CHO K1 cells expressing either human D2 and D4.2 receptors were grown in 162 cm^2 culture flasks in F12 medium (Gibco Laboratories, Grand Island, N.Y.) supplemented with 10% fetal bovine serum (FBS, Hyclone, Logan, UT) in an atmosphere of 5% Co2 /95% air at 37° C. Cells”
After 60 minutes incubation at 25° C., the incubations were terminated by rapid filtration through Whatmann GF/B glass fibre filters (soaked for 1 hour in 0.5% polyethylenimine) on a -cell harvester, with three washes of 1 mL ice-cold buffer. […] Nonspecific binding was defined in presence of 1 mM of haloperidol.
as §3

| SMILES | Ki [1] | Ki ([2]; D4 Ki) | Ki ([2]; read-out: D4 Ki) |
| --- | --- | --- | --- |
| Cc1cccc(N2CCN(Cc3ccc4ccc(=O)oc4c3)CC2)c1 [Example 17, 7-(4-m-Tolyl-piperazin-1-ylmethyl)-chromen-2-one] | 4400 nM | 32 nM | – |
| O=c1ccc2ccc(CN3CCN(c4ccccc4F)CC3)cc2o1 [Example 18, 7-[4-(2-Fluoro-phenyl)-piperazin-1-ylmethyl]-chromen-2-one] | 1000 nM | – | 33 nM |
| Cc1cccc(N2CCN(Cc3ccc4ccc(=O)oc4c3)CC2)c1Cl [Example 20, 7-[4-(2-Chloro-3-methyl-phenyl)-piperazin-1-ylmethyl]-chromen-2-one] | 5880 nM | – | 40 nM |
| O=c1ccc2ccc(CN3CCN(c4cccc(Cl)c4Cl)CC3)cc2o1 [Example 21, 7-[4-(2,3-Dichloro-phenyl)-piperazin-1-ylmethyl]-chromen-2-one] | 1840 nM | – | 41.1 nM |
| O=c1ccc2ccc(CN3CCN(c4cccc(F)c4)CC3)cc2o1 [Example 22, 7-[4-(3-Fluoro-phenyl)-piperazin-1-ylmethyl]-chromen-2-one] | 4020 nM | – | 44 nM |
| O=c1ccc2ccc(CN3CCN(c4ccccn4)CC3)cc2o1 [Example 25, 2H-1-Benzopyran-2-one, 7-[[4-(2-pyridinyl)-1-piperazinyl]methyl]-, dihydrochloride] | > 5880 nM | – | 68.2 nM |
| Cc1cccc(N2CCN(Cc3ccc4oc(=O)ccc4c3)CC2)c1C [Example 35, 6-[4-(2,3-Dimethyl-phenyl)-piperazin-1-ylmethyl]-chromen-2-one] | 3250 nM | – | 8.8 nM |
| Cc1ccc(N2CCN(Cc3ccc4oc(=O)ccc4c3)CC2)cc1 [Example 36, 6-(4-p-Tolyl-piperazin-1-ylmethyl)-chromen-2-one] | 5830 nM | 10.9 nM | – |
| O=c1ccc2cc(CN3CCN(c4ccc(CO)c(Br)c4)CC3)ccc2o1 [Example 37, 6-[4-(3-Bromo-4-hydroxymethyl-phenyl)-piperazin-1-ylmethyl]-chromen-2-one] | 2980 nM | – | 12.6 nM |
| O=c1ccc2cc(CN3CCN(c4ccc(CO)c(Cl)c4)CC3)ccc2o1 [Example 38, 6-[4-(3-Chloro-4-hydroxymethyl-phenyl)-piperazin-1-ylmethyl]-chromen-2-one] | 7290 nM | – | 13 nM |
| O=c1ccc2cc(CN3CCN(c4cccc(Cl)c4Cl)CC3)ccc2o1 [Example 39, 6-[4-(2,3-Dichloro-phenyl)-piperazin-1-ylmethyl]-chromen-2-one] | 1200 nM | – | 15 nM |
| O=c1ccc2cc(CN3CCN(c4ccc(CO)c(F)c4)CC3)ccc2o1 [Example 40, 6-[4-(3-Fluoro-4-hydroxymethyl-phenyl)-piperazin-1-ylmethyl]-chromen-2-one] | > 5880 nM | – | 18 nM |
| O=c1ccc2cc(CN3CCN(c4cccc(Cl)c4)CC3)ccc2o1 [Example 41, 6-[4-(3-Chloro-phenyl)-piperazin-1-ylmethyl]-chromen-2-one] | 3320 nM | – | 19.4 nM |
| O=c1ccc2cc(CN3CCN(c4ccccc4Cl)CC3)ccc2o1 [Example 43, 6-[4-(2-Chloro-phenyl)-piperazin-1-ylmethyl]-chromen-2-one] | 218 nM | – | 28 nM |
| O=c1ccc2cc(CN3CCN(c4ccccn4)CC3)ccc2o1 [Example 44, 2H-1-Benzopyran-2-one, 6-[[4-(2-pyridinyl)-1-piperazinyl]methyl]-, dihydrochloride] | 2170 nM | – | 29.7 nM |
| COc1cccc(N2CCN(Cc3ccc4oc(=O)ccc4c3)CC2)c1 [Example 47, 6-[4-(3-Methoxy-phenyl)-piperazin-1-ylmethyl]-chromen-2-one] | 7120 nM | – | 57 nM |
